Source: US8461305B2, “L-fucose α1→6 specific lectin” (J-Oil Mills, Inc., priority 2008, dated 2013)

Assay: frontal affinity chromatography (FAC), association constant to PA sugar chains having other L-fucose
Type: binding
Settings: for binding to non-L-fucose α1→6 sugar chain: FAC; for association constant Ka: 25 degrees C.
Method: The following section will describe a method of calculating an association constant by frontal affinity chromatography (FAC). This method is based on the following principle. […] Then, the elution front end (front) is observed immediately. When there is an affinity with lectin, the elution of the sugar chain is delayed.
The preparation of a lectin column used in the apparatus is performed in the method as described below. 1. Purified lectin is dissolved in 0.1 to 0.2M of NaHCO3 buffer solution (pH 8.3 to 8.5). 2. The lectin is immobilized, via a lectin primary amino group, a carrier such as NHS activated sepharose. 3. Then, the lectin is blocked by Tris buffer solution including primary amine or ethanolamine for example. 4. Lectin-sepharose is suspended in 10 mM Tris buffer, including 0.8% of NaCl (pH 7.4, TBS). Then, lectin immobilized resin is filled in a miniature column (φ2 mm×10 mm, 31.4 μl). 5. The miniature column in which the lectin immobilized resin is filled is protected by a holder and the lectin column is connected to an FAC automatic analysis apparatus (FAC-1, SHIMADZU CORPORATION).
Then, the elution of the PA sugar chain from the column is detected by a fluorescence detector (excitation wavelength/fluorescence wavelength: 310 nm/380 nm).
Based on the detection data, by using the elution front end (Vo) of the sugar chain (PA rhamnose) not interacting with lectin as a reference, the delay (V−Vo) of the elution front end (V) of a sugar chain interacting with lectin is calculated as an interaction strength. Then, based on the following FAC criteria expressions, the association constant (Ka) between the sugar chain and lectin is calculated based on V−Vo and Bt. If the interaction strength (V−Vo value) and the association constant are higher, a higher affinity is caused between lectin and an L-fucose α1→6 sugar chain.
[In the formula, A means substance used for the elution, Ao means the initial concentration of the substance A, B means a immobilized ligand, V means the elution volume, Vo means the elution front end volume of the substance not interacting with the immobilized ligand B at all, Bt means an effective ligand amount, Kd means a dissociation constant (an inverse of the association constant)].
Pyridylaminated (PA) sugar chains shown in FIG. 1 and FIG. 2 were used to frontal affinity chromatography (FAC) analysis. PA sugars were purchased from TAKARA BIO INC., SEIKAGAKU BIOBUSINESS CORPORATION, and Masuda Chemical Industries co., LTD. PA sugar were also obtained by pyridylaminating, by GlycoTAG®(TAKARA BIO INC.), an unlabeled sugar chain or a sugar chain obtained by subjecting a sugar chain to enzyme digestion for example.
Lectin was dissolved in 0.2 M NaHCO3 buffer solution (pH 8.3) including 0.5 M NaCl and coupled to the NHS-activated sepharose (GE Healthcare Bioscience) by following the manufacturer's instructions. Then, lectin immobilized sepharose was suspended in 10 mM Tris buffer (pH 7.4, TBS) including […] and the resultant matter was filled in a miniature column (φ2 mm×10 mm, 31.4 μl).
Frontal affinity chromatography was performed using FAC automatic analysis apparatus (FAC-1, SHIMADZU CORPORATION). In particular, the above-prepared lectin column was inserted to a stainless steel holder and the holder was connected to FAC-1 apparatus. The flow rate and the column temperature were maintained at 0.125 ml/min and 25 degrees C., respectively. After the miniature column was equilibrated by the TBS, an excessive volume (0.5 ml to 4 ml) of a PA sugar chain (3.75 nM or 7.5 nM) was continuously inputted to the column using an automatic sampling apparatus.
The fluorescent strength of the eluate of the PA sugar (excitation wavelength of 310 nm and fluorescence wavelength of 380 nm) was monitored to measure the interaction strength [a difference of the front end eluate to the standard oligosaccharide (PA rhamnose): V−V0]. […]

[1] = Sugar chain No. 728 (as listed in Table 5/12)

Substance | binding to non-L-fucose α1→6 sugar chain | association constant Ka (Sugar chain No. 419) [M⁻¹] | association constant Ka (Sugar chain No. 420) [M⁻¹] | association constant Ka (Sugar chain No. 718) [M⁻¹] | association constant Ka (Sugar chain No. 719) [M⁻¹] | association constant Ka (Sugar chain No. 720) [M⁻¹] | association constant Ka (Sugar chain No. 721) [M⁻¹] | association constant Ka (Sugar chain No. 722) [M⁻¹] | association constant Ka (Sugar chain No. 723) [M⁻¹] | association constant Ka (Sugar chain No. 726) [M⁻¹] | association constant Ka (Sugar chain No. 727) [M⁻¹] | association constant Ka [1] [M⁻¹] | association constant Ka (Sugar chain No. 729) [M⁻¹] | association constant Ka (Sugar chain No. 730) [M⁻¹] | association constant Ka (Sugar chain No. 731) [M⁻¹] | association constant Ka (Sugar chain No. 739) [M⁻¹] | association constant Ka (Sugar chain No. 909) [M⁻¹] | association constant Ka (Sugar chain No. 910) [M⁻¹] | association constant Ka (Sugar chain No. 931) [M⁻¹] | association constant Ka (Sugar chain No. 932) [M⁻¹] | other results
Naematoloma sublateritium lectin [NSL] | not detected at all | <1000 | <1000 | <1000 | <1000 | <1000 | <1000 | <1000 | <1000 | <1000 | <1000 | <1000 | <1000 | <1000 | <1000 | <1000 | <1000 | <1000 | <1000 | <1000 | association constant Ka (Sugar chain No. 933): <1000 M⁻¹
Lepista sordida lectin [LSL, novel lectin purified from the mushroom Lepista sordida] | not detected at all | <1000 | <1000 | <1000 | <1000 | <1000 | <1000 | <1000 | <1000 | <1000 | <1000 | <1000 | <1000 | <1000 | <1000 | <1000 | <1000 | <1000 | <1000 | <1000 | association constant Ka (Sugar chain No. 933): <1000 M⁻¹
